# How the values were obtained:
# [1] = tested on: human T cells; assay: T cell proliferation assay (3H-thymidine uptake); type: cell-based; conditions: 20 µg/ml; 6 days post-incubation (Figure 6)
# Procedure: T cell proliferation assays were performed on cells obtained from human leukopacs (discarded white cells from anonymous platelet donors). Mononuclear cells were separated by ficoll-hypaque sedimentation to eliminate red cells and polymorphonuclear leukocytes. The mononuclear layer, which consisted of T cells, B cells, and mononuclear cells, was depleted of B cells and monocytes by passage over nylon wool column. A portion of these cells was saved prior to placement on nylon wool and were used as autologous feeder cells following irradiation with 6.4 kRads with a cesium source for 4.8 min. Nylon passed cells, which were greater than 98% CD3 positive (as determined by FACS analysis) were used as responder cells or further depleted with antibodies to CD4 (OKT4) or CD8 (OKT8) followed by negative selection with magnetic beads. Finberg, RW et al. J Immunol 149:2055 (1992); Haregewoin, A et al. Nature 340:309 (1989). […] Cells were washed extensively, harvested, and the amount of radioactive uptake counted by liquid scintillation. […] Data were expressed as the average of triplicate wells ± the standard error of cpm represented. […]
# Following the T cell proliferation assay of Example 2, K-D peptides (20 µg/ml) of varying size were assessed for their ability to stimulate T cell activation 6 days post-incubation. […]
# [2] = tested on: B. fragilis NCTC 9343; assay: Rat model of intraabdominal sepsis, abscess formation after B. fragilis challenge; type: in vivo
# Procedure: The rat model of intraabdominal sepsis used in this study has been described previously. […] Briefly, male Wistar or Lewis rats (Charles River Laboratories, Wilmington, MA) weighing between 180 and 200 g were housed separately and received chow (Ralston Purina, St. Louis, MO) and water ad libitum. Animals were anesthetized with a single intraperitoneal injection of 0.15 ml of Nembutal (50 mg/ml; Abbott Laboratories, North Chicago, IL), and their abdomens were shaved and swabbed with a tincture of iodine. An anterior midline incision (0.5-1.0 cm) was made through the abdominal wall and peritoneum, and a gelatin capsule containing 0.5 ml of inoculum was inserted into the pelvis. The inoculum contained either B. fragilis NCTC 9343 (10^8 cfu/animal), S. aureus PS 80 (10^7 cfu/animal), or purified test polysaccharide, mixed 1:1 with an adjuvant solution containing sterile rat cecal contents and 10% barium sulfate (w/v) as previously described. […] The incisions were closed with interrupted 3.0 silk sutures, and the animals were returned to the cages.
# Six days later animals were necropsied in a blinded fashion and examined for the formation of one or more intraabdominal abscesses by an observer blinded to the experimental groups.
# This example addresses whether zwitterionic (K-D)n peptides could protect animals against abscess formation in vivo, using the abdominal sepsis model in Example 1.
# The effect of the peptide repeating unit size on protection was examined. Animals were treated according to the regimen described above with a 50 µg/dose of each repeating unit size (Table 2).
# [3] = Table 1 Experiment A, 50 µg subcutaneous at -24, 0, +24 h, B. fragilis 1 x 10^8 cfu/rat, six days later
substance,measurement,setting,value
poly-L-lysine,T cell activation by K-D peptides of varying size,[1],did not stimulate T cell proliferation
same,protection against abscess formation compared with saline-treated animals,"[2]; 50 µg/dose subcutaneous, B. fragilis challenge",did not protect against abscess formation
same,Abscess formation (%),[2]; [3],80%
same,No. animals with abscess/total,[2]; [3],8/10

# Source: patent EP1459757A1, “Immunomodulating polymers” (THE BRIGHAM AND WOMEN'S HOSPITAL, INC., priority 1999, dated 2004)
